From US20150126553A1, “BICYCLIC HETEROCYCLES CAPABLE OF MODULATING T-CELL RESPONSES, AND METHODS OF USING SAME” (Nogra Pharma Limited, priority 2012, published 2015)

How the values were obtained:
[1] = system: Human peripheral blood lymphocytes (PBLs); assay: Inhibition of T lymphocyte proliferation (PHA stimulation, tritiated thymidine); type: cell-based; details: PHA stimulated lymphocytes
Procedure: Human peripheral blood lymphocytes (PBLs) were isolated from whole blood of healthy volunteers by Ficoll-Isopaque density gradient centrifugation. After washing, monocytes were separated from lymphocytes by percoll density gradient centrifugation. The lymphocytes were cultured in IMDM (Gibco, Verviers, Belgium) supplemented with 10% heat inactivated fetal calf serum.
Cells were seeded in 96 well plates and stimulated with PHA (10 μg/ml) and corresponding concentration of pharmaceuticals. After 24 hours tritiated thymidine was added to each well and left overnight. Next morning proliferation was measured by microbeta counter. Graphs were plotted with the untreated condition set to a hundred percent.

scaffolding protein LAT = assay: Western blot of T cell receptor related signaling, phospho-LAT; type: cell-based, human; details: pretreated 10 minutes, stimulated 10 minutes with PHA; FIG. 2A
Procedure: (§1) Lymphocytes were seeded in a 6 well plate (1.0·10^7/well), pretreated for 10 minutes with S3.1, S3.4 or dexamethasone and stimulated for 10 minutes with PHA. The experiment was stopped by adding a large volume of ice cold PBS to the cells. The suspension was transferred to a tube, briefly spinned down in a centrifuge and the supernatant removed. The pellet was lysed by adding cold lysisbuffer (0.1% NP40, 50 mM TrisHCl, 1 mM EDTA, 1 mM EGTA, 150 mM NaCl, 200 μM Na3VO4, 10 mM NaF and protease inhibitors) and incubating 20 minutes on ice.
(§2) To investigate the cell signaling events that are affected by treatment with S3.1 and S3.4, lysates were supplemented with sample buffer (188 mM Tris-Cl (pH 6.8), 3% SDS, 30% glycerol, 0.01% bromophenol blue, 15% β-mercaptoethanol), heated to 95° C. for 5 minutes, cooled on ice and sonicated. Samples were then run on 10% SDS-PAGE gel, blotted to PVDF membrane and incubated with antibodies for phospho-Zap70 (Cell Signaling Technology (Beverly, Mass.)) and phospho-LAT (Cell Signaling Technology (Beverly, Mass.)). To show equal loading of the samples the blot was incubated with an antibody directed against beta-actin (Santa Cruz Biotechnology (Heidelberg, Germany)).

kinase Zap70 = assay: Western blot of T cell receptor related signaling, phospho-Zap70; type: cell-based, human; details: pretreated 10 minutes, stimulated 10 minutes with PHA; FIG. 2A
Procedure: as §1, §2

## c1ccc(CN2CCCC(c3ccnc(SCCN4CCCC4)n3)C2)cc1 (stereo not drawn) [Compound S3.4]
[1]
  effect on T lymphocyte proliferation: antiproliferative effect
Scaffolding protein LAT
  LAT phosphorylation level compared to a stimulated untreated control: lower phosphorylation levels
Kinase Zap70
  Zap70 phosphorylation level compared to a stimulated untreated control: lower phosphorylation levels
